Source: publication PMC5640878, “The GlyR Extracellular β8–β9 Loop – A Functional Determinant of Agonist Potency” (Frontiers in Molecular Neuroscience, 2017)
Read-outs that look alike come from different tables or passages of the source. One block for each compound: values may come before it.

Assays:
GlyRα1β WT = biological target: T1, GlyRα1β WT (UniProt P48167+Q64018); assay: whole-cell patch clamp recordings of transfected HEK293 cells; type: cell-based, murine
T1 construct: expressed in transfected cells; host or cells: HEK293
Experimental: (§1) Media were exchanged after 6–24 h.
(§2) All experiments were performed at room temperature.

GlyRα1^Q177β variants = settings: saturating glycine (1 mM); HEK293, whole-cell
Experimental: as §1, §2

GlyRα1^Q177K = settings: shaky mouse; ref Schaefer et al., 2017; cited from earlier work
[1] = tested on: GlyR R65 mutated to lysine; settings: ref Grudzinska et al., 2005; cited from earlier work
[2] = tested on: GlyR R65 mutated to alanine; settings: ref Grudzinska et al., 2005; cited from earlier work
GlyRα1^Q177Aβ = GlyRα1^Q177Aβ (UniProt P48167+Q64018, Q205A); assay: whole-cell patch clamp recordings of transfected HEK293 cells
Experimental: (§3) HEK293 cells were transiently transfected using a modified calcium phosphate precipitation method. A mixture of plasmid DNA, CaCl2, 0.1x TE buffer and 2x HBS (50 mM HEPES, 12 mM glucose, 10 mM KCl, 280 mM NaCl, 1.5 mM Na2HPO4) was applied onto the cells. A GlyRα1 to GlyRβ ratio of 1:2 was used for co-expression. For GlyRα1:GlyRβ:GFP co-expression, a ratio of 1:2:1 was transfected. The same amount of DNA was used for GlyRα1 WT and mutants. Media were exchanged after 6–24 h. Immunocytochemical stainings and electrophysiological experiments were always done 24 h after transfection, biotinylation experiments were performed 48 h after transfection.
(§4) The patch clamp technique was used to measure current amplitudes (I) of transfected HEK293 cells. Currents were amplified using an EPC-9 amplifier and the software Patchmaster (HEKA, Lambrecht, Germany). Cells were patched 24 h after transfection in a whole-cell configuration mode. […] All agonist and antagonists were applied using an Octaflow II system (ALA Scientific Instruments, Farmingdale, NY, United States). The extracellular buffer consisted of (in mM): 137 NaCl, 5.4 KCl, 1.8 CaCl2, 1 MgCl2, 5 HEPES, pH adjusted to 7.4 with NaOH. The intracellular buffer contained (in mM): 120 CsCl, 20 N(Et)4Cl, 1 CaCl2, 2 MgCl2, 11 EGTA, 10 HEPES, pH adjusted to 7.2 with CsOH. Recording pipettes with an open resistance of 4–6 MΩ were manufactured from borosilicate capillaries using a P97 horizontal puller (Sutter Instrument, Novato, CA, United States). Cells were held at -60 mV and fast capacitances were in range of 11–13 pF. All experiments were performed at room temperature.
(§5) The following Hill equation was used: I = Imax ^∗ c^nHill/(c^nHill + EC50^nHill). I refers to the current amplitude at the given agonist concentration c, Imax is the current amplitude at a saturating agonist, EC50 refers to the agonist concentration evoking half-maximal current responses and nHill is the Hill coefficient.

GlyRα1^Q177Cβ = GlyRα1^Q177Cβ (UniProt P48167+Q64018, Q205C); assay: as above
Experimental: as §3, §4, §5

GlyRα1^Q177Dβ = GlyRα1^Q177Dβ (UniProt P48167+Q64018, Q205D); assay: as above
Experimental: as §3, §4, §5

GlyRα1^Q177Eβ = GlyRα1^Q177Eβ (UniProt P48167+Q64018, Q205E); assay: as above
Experimental: as §3, §4, §5

GlyRα1^Q177Gβ = GlyRα1^Q177Gβ (UniProt P48167+Q64018, Q205G); assay: as above
Experimental: as §3, §4, §5

GlyRα1^Q177Kβ = GlyRα1^Q177Kβ (UniProt P48167+Q64018, Q205K); assay: as above
Experimental: as §3, §4, §5

GlyRα1^Q177Nβ = GlyRα1^Q177Nβ (UniProt P48167+Q64018, Q205N); assay: as above
Experimental: as §3, §4, §5

GlyRα1^Q177Rβ = GlyRα1^Q177Rβ (UniProt P48167+Q64018, Q205R); assay: as above
Experimental: as §3, §4, §5

GlyRα1^Q177Wβ = GlyRα1^Q177Wβ (UniProt P48167+Q64018, Q205W); assay: as above
Experimental: as §3, §4, §5

[3] = 100 μM glycine, HEK293, co-expressed with GlyRβ, whole-cell
[4] = Hill coefficient of glycine concentration-response curve
[5] = read-out: EC50 glycine, HEK293, α1:β 1:2, whole-cell currents, 1–3000 μM glycine
[6] = 100 μM β-alanine, HEK293, whole-cell
[7] = Hill coefficient of β-alanine concentration-response curve
[8] = saturating 10 mM β-alanine, HEK293, whole-cell
[9] = 100 μM taurine, HEK293, whole-cell
[10] = Hill coefficient of taurine concentration-response curve
[11] = 10 mM taurine, HEK293, whole-cell, mutant probably not completely saturated

Compound: NCC(=O)O [glycine]
Mean Igly 100 μM ± SEM (GlyRα1β WT; [3]): 3.8 ± 0.3 nA
nH glycine (GlyRα1β WT; [4]): 1.9
EC50 (GlyRα1β WT; [5]): 58 ± 4 µM
Imax values in comparison to GlyRα1β WT (GlyRα1^Q177β variants): No significant differences
binding to the mutated receptor compared to GlyRα1 WT (GlyRα1^Q177K): bound with the same efficiency
decrease in glycine EC50 [1]: 200 fold
decrease in glycine EC50 [2]: 1250 fold
increase in glycine EC50 compared to GlyRα1β WT (GlyRα1^Q177Aβ): 3.6 fold
Mean Igly 100 μM ± SEM (GlyRα1^Q177Aβ; [3]): 0.8 ± 0.3 nA
nH glycine (GlyRα1^Q177Aβ; [4]): 2.0
EC50 (GlyRα1^Q177Aβ; [5]): 208 ± 22 µM
increase in glycine EC50 compared to GlyRα1β WT (GlyRα1^Q177Cβ): 1.5 fold
Mean Igly 100 μM ± SEM (GlyRα1^Q177Cβ; [3]): 1.8 ± 0.3 nA
nH glycine (GlyRα1^Q177Cβ; [4]): 2.1
increase in glycine EC50 compared to GlyRα1β WT (GlyRα1^Q177Dβ): 2.3 fold
Mean Igly 100 μM ± SEM (GlyRα1^Q177Dβ; [3]): 0.9 ± 0.3 nA
nH glycine (GlyRα1^Q177Dβ; [4]): 3.4
EC50 (GlyRα1^Q177Dβ; [5]): 137 ± 4 µM
increase in glycine EC50 compared to GlyRα1β WT (GlyRα1^Q177Eβ): 1.8 fold
Mean Igly 100 μM ± SEM (GlyRα1^Q177Eβ; [3]): 1.6 ± 0.2 nA
nH glycine (GlyRα1^Q177Eβ; [4]): 2.6
increase in glycine EC50 compared to GlyRα1β WT (GlyRα1^Q177Gβ): 4.5 fold
Mean Igly 100 μM ± SEM (GlyRα1^Q177Gβ; [3]): 0.3 ± 0.08 nA
nH glycine (GlyRα1^Q177Gβ; [4]): 2.5
EC50 (GlyRα1^Q177Gβ; [5]): 262 ± 13 µM
increase in glycine EC50 compared to GlyRα1β WT (GlyRα1^Q177Kβ): 5.3 fold
Mean Igly 100 μM ± SEM (GlyRα1^Q177Kβ; [3]): 0.6 ± 0.07^∗∗∗ nA
nH glycine (GlyRα1^Q177Kβ; [4]): 2.2
EC50 (GlyRα1^Q177Kβ; [5]): 312 ± 7 µM
increase in glycine EC50 compared to GlyRα1β WT (GlyRα1^Q177Nβ): 1.6 fold
Mean Igly 100 μM ± SEM (GlyRα1^Q177Nβ; [3]): 1.2 ± 0.2 nA
nH glycine (GlyRα1^Q177Nβ; [4]): 3.0
increase in glycine EC50 compared to GlyRα1β WT (GlyRα1^Q177Rβ): 4 fold
Mean Igly 100 μM ± SEM (GlyRα1^Q177Rβ; [3]): 0.8 ± 0.07 nA
nH glycine (GlyRα1^Q177Rβ; [4]): 2.0
EC50 (GlyRα1^Q177Rβ; [5]): 231 ± 4 µM
increase in glycine EC50 compared to GlyRα1β WT (GlyRα1^Q177Wβ): 2.2 fold
Mean Igly 100 μM ± SEM (GlyRα1^Q177Wβ; [3]): 1.8 ± 0.3 nA
nH glycine (GlyRα1^Q177Wβ; [4]): 3.7
EC50 (GlyRα1^Q177Wβ; [5]): 130 ± 12 µM

agonist-induced inward current at 100 μM β-alanine (GlyRα1β WT; [6]): 1.3 ± 0.3 nA
EC50 (GlyRα1β WT; HEK293, co-expressed with GlyRβ, whole-cell, 3–10000 μM β-alanine, read-out: EC50 β-alanine): 157 ± 7 µM
nH β-alanine (GlyRα1β WT; [7]): 2.6
absolute current amplitude at 10 mM β-alanine (GlyRα1β WT; [8]): 5.3 ± 2 nA
EC50 (GlyRα1^Q177Nβ): 203 ± 17 µM
agonist-induced inward current at 100 μM β-alanine (GlyRα1^Q177Nβ; [6]): 0.87 ± 0.4 nA
nH β-alanine (GlyRα1^Q177Nβ; [7]): 1.7
absolute current amplitude at 10 mM β-alanine (GlyRα1^Q177Nβ; [8]): 4.1 ± 0.8 nA
EC50 (GlyRα1^Q177Rβ): 359 ± 19 µM
agonist-induced inward current at 100 μM β-alanine (GlyRα1^Q177Rβ; [6]): 0.2 ± 0.07 nA
nH β-alanine (GlyRα1^Q177Rβ; [7]): 1.9
absolute current amplitude at 10 mM β-alanine (GlyRα1^Q177Rβ; [8]): 4.5 ± 0.9 nA
Compound: NCCC(=O)O [β-alanine]

agonist-induced inward current at 100 μM taurine (GlyRα1β WT; [9]): 0.13 ± 0.06 nA
absolute current amplitude at 10 mM taurine (efficacy) (GlyRα1β WT; 10 mM taurine, HEK293, whole-cell): 5.7 ± 0.4 nA
EC50 (GlyRα1β WT; HEK293, co-expressed with GlyRβ, whole-cell, 3–10000 μM taurine, read-out: EC50 taurine): 593 ± 18 µM
nH taurine (GlyRα1β WT; [10]): 2.3
agonist-induced inward current at 100 μM taurine (GlyRα1^Q177Nβ; [9]): 0.02 ± 0.001 nA
absolute current amplitude at 10 mM taurine (efficacy) (GlyRα1^Q177Nβ; [11]): 2.7 ± 0.5 nA
nH taurine (GlyRα1^Q177Nβ; [10]): 1.6
increase of the EC50 for taurine compared to GlyRα1β WT (GlyRα1^Q177Nβ; human, hek293 cells): 2.1 fold
agonist-induced inward current at 100 μM taurine (GlyRα1^Q177Rβ; [9]): 0 ± 0 nA
absolute current amplitude at 10 mM taurine (efficacy) (GlyRα1^Q177Rβ; [11]): 3.1 ± 0.4 nA
nH taurine (GlyRα1^Q177Rβ; [10]): 1.5
increase of the EC50 for taurine compared to GlyRα1β WT (GlyRα1^Q177Rβ; human, hek293 cells): 5 fold
Compound: NCCS(=O)(=O)O [taurine]

Compound: O=C1C[C@@H]2OCC=C3CN4CC[C@]56c7ccccc7N1[C@H]5[C@H]2[C@H]3C[C@H]46 [strychnine]
binding to the mutated receptor compared to GlyRα1 WT (GlyRα1^Q177K): bound with the same efficiency
